# Patent publication US9469615B2, “Quinoxalines and AZA-quinoxalines as CRTH2 receptor modulators” (Merck Sharp & Dohme Corp., priority 2010, dated 2016)
# pKi: −log10 of the molar value.
# Target: T1, hCRTH2 (Homo sapiens, UniProt Q9Y5Y4)
# T1 construct: expressed in transfected cells; host or cells: HEK (human embryonic kidney) cells expressing hCRTH2; membrane preparation
# T1 sequence (Q9Y5Y4 1-395): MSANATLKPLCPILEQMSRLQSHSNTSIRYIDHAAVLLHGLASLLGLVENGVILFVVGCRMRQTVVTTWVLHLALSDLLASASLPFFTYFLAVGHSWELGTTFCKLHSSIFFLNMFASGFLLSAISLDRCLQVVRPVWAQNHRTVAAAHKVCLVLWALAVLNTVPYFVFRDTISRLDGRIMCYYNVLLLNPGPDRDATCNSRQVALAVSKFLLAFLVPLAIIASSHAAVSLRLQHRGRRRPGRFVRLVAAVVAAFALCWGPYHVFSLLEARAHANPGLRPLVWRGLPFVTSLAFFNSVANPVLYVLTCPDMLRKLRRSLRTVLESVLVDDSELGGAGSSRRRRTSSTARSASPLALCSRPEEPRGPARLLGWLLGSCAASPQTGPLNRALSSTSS
# Assay: Radioligand binding assay ([3H]PGD2 competition, HEK-hCRTH2 membranes)
# Summary of the method: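 Membranes (8-20 μg protein) from HEK-hCRTH2 cells were incubated 60 min at room temperature with 3.0 nM [3H]PGD2 in 50 mM Tris-HCl pH 7.4, 1 mM EDTA, 2 mM MnCl2, 1% DMSO. Non-specific binding defined with 10 μM PGD2. Bound radioactivity counted after filtration.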
Compound,"pKi ([3H]PGD2 competition, Table B)","pKi ([3H]PGD2 binding, values in text)"
"COc1ccc(N2CCN(C(=O)c3ccc4nc(-c5ccc(Cl)cc5)c(CCCCC(=O)O)nc4c3)CC2)cc1 [compound 622, 5-(3-(4-chlorophenyl)-7-(4-(4-methoxyphenyl)piperazine-1-carbonyl)quinoxalin-2-yl)pentanoic acid]",7.70 to 8.68,–
"N#Cc1ccc(N2CCN(C(=O)c3ccc4nc(-c5ccc(Cl)cc5)c(CCCCC(=O)O)nc4c3)CC2)cc1 [compound 623, 5-(3-(4-chlorophenyl)-7-(4-(4-cyanophenyl)piperazine-1-carbonyl)quinoxalin-2-yl)pentanoic acid]",7.70 to 8.68,–
"CN(Cc1cccnc1)C(=O)c1ccc2nc(-c3ccc(Cl)cc3)c(CCCCC(=O)O)nc2c1 [compound 625, 5-(3-(4-chlorophenyl)-7-(methyl(pyridin-3-ylmethyl)carbamoyl)quinoxalin-2-yl)pentanoic acid]",7.70 to 8.68,–
"O=C(O)CCCCc1nc2cc(C(=O)N3CCC(n4c(=O)[nH]c5ccccc54)CC3)ccc2nc1-c1ccc(Cl)cc1 [compound 626, 5-(3-(4-chlorophenyl)-7-(4-(2-oxo-2,3-dihydro-1H-benzo[d]imidazol-1-yl)piperidine-1-carbonyl)quinoxalin-2-yl)pentanoic acid]",7.70 to 8.68,–
O=C(O)CCCCc1nc2cc(C(=O)N3C[C@@H]4C[C@H]3CN4Cc3ccccc3)ccc2nc1-c1ccc(Cl)cc1 [compound 630],7.70 to 8.68,–
"O=C(O)CCCCc1nc2cc(C(=O)N3CCC4(CC3)CCN(c3ccccc3)C4=O)ccc2nc1-c1ccc(Cl)cc1 [compound 634, 5-(3-(4-chlorophenyl)-7-(1-oxo-2-phenyl-2,8-diazaspiro[4.5]decane-8-carbonyl)quinoxalin-2-yl)pentanoic acid]",7.70 to 8.68,–
"C[C@H](NC(=O)c1ccc2nc(-c3ccccc3)c(CCCCC(=O)O)nc2c1)c1cncc2ccccc12 [compound 637, (S)-5-(7-((1-(isoquinolin-4-yl)ethyl)carbamoyl)-3-phenylquinoxalin-2-yl)pentanoic acid]",7.70 to 8.68,8.38
"C[C@@H](NC(=O)c1ccc2nc(-c3ccccc3)c(CCCCC(=O)O)nc2c1)c1cncc2ccccc12 [compound 638, (R)-5-(7-((1-(isoquinolin-4-yl)ethyl)carbamoyl)-3-phenylquinoxalin-2-yl)pentanoic acid]",6.15 to 6.70,–
"C[C@@H](NC(=O)c1ccc2nc(-c3ccccc3)c(CCCCC(=O)O)nc2c1)c1cccc2ncccc12 [compound 639, (R)-5-(3-phenyl-7-((1-(quinolin-5-yl)ethyl)carbamoyl)quinoxalin-2-yl)pentanoic acid]",6.70 to 7.70,–
"C[C@H](NC(=O)c1ccc2nc(-c3ccccc3)c(CCCCC(=O)O)nc2c1)c1cccc2ncccc12 [compound 640, (S)-5-(3-phenyl-7-((1-(quinolin-5-yl)ethyl)carbamoyl)quinoxalin-2-yl)pentanoic acid]",7.70 to 8.68,–
"O=C(O)CCCCc1nc2cc(C(=O)N[C@@H]3CCOc4ccc(F)cc43)ccc2nc1-c1ccccc1 [compound 641, (R)-5-(7-((6-fluoro-chroman-4-yl)carbamoyl)-3-phenylquinoxalin-2-yl)pentanoic acid]",7.70 to 8.68,–
"O=C(O)CCCCc1nc2cc(C(=O)N[C@@H]3CCOc4cc(F)c(F)cc43)ccc2nc1-c1ccccc1 [compound 642, (R)-5-(7-((6,7-difluorochroman-4-yl)carbamoyl)-3-phenylquinoxalin-2-yl)pentanoic acid]",7.70 to 8.68,–
"C[C@@H](c1ccccc1)N(C)C(=O)c1ccc2nc(-c3ccc(Cl)cc3)c(CCCCC(=O)O)nc2c1 [compound 644, (S)-5-(3-(4-chloro-phenyl)-7-(methyl(1-phenylethyl)carbamoyl)quinoxalin-2-yl) pentanoic acid]",7.70 to 8.68,–
"O=C(O)CCCCc1nc2cc(C(=O)N3CCCCC3c3ccccc3)ccc2nc1-c1ccc(Cl)cc1 (stereo not drawn) [compound 645, 5-(3-(4-chlorophenyl)-7-(2-phenylpiperidine-1-carbonyl)quinoxalin-2-yl)pentanoic acid]",7.70 to 8.68,–
"O=C(O)CCCCc1nc2cc(C(=O)N3CCCC3c3ccccc3)ccc2nc1-c1ccc(Cl)cc1 (stereo not drawn) [compound 646, 5-(3-(4-chlorophenyl)-7-(2-phenylpyrrolidine-1-carbonyl)quinoxalin-2-yl)pentanoic acid]",7.70 to 8.68,–
"O=C(O)CCCCc1nc2cc(C(=O)N3CCCCC3c3ccccn3)ccc2nc1-c1ccc(Cl)cc1 (stereo not drawn) [compound 647, 5-(3-(4-chlorophenyl)-7-(2-(pyridin-2-yl)piperidine-1-carbonyl)quinoxalin-2-yl)pentanoic acid]",6.70 to 7.70,–
"O=C(O)CCCCc1nc2cc(C(=O)N3CCC3c3ccccc3)ccc2nc1-c1ccc(Cl)cc1 (stereo not drawn) [compound 648, 5-(3-(4-chlorophenyl)-7-(2-phenylazetidine-1-carbonyl)quinoxalin-2-yl)pentanoic acid]",7.70 to 8.68,–
"CC(c1ccoc1)N(C)C(=O)c1ccc2nc(-c3ccc(Cl)cc3)c(CCCCC(=O)O)nc2c1 (stereo not drawn) [compound 649, 5-(3-(4-chlorophenyl)-7-((1-(furan-3-yl)ethyl)(methyl)carbamoyl)quinoxalin-2-yl) pentanoic acid]",6.70 to 7.70,–
"O=C(O)CCCCc1nc2cc(C(=O)N3CCCC3c3ccncc3)ccc2nc1-c1ccc(Cl)cc1 (stereo not drawn) [compound 650, 5-(3-(4-chlorophenyl)-7-(2-(pyridin-4-yl)pyrrolidine-1-carbonyl)quinoxalin-2-yl)pentanoic acid]",6.70 to 7.70,–

# Molecules with a higher pKi ([3H]PGD2 competition, Table B), results first:
"pKi ([3H]PGD2 competition, Table B)","pKi ([3H]PGD2 binding, values in text)",Compound
8.70 to 10.00,–,"Cc1ccccc1N1CCN(C(=O)c2ccc3nc(-c4ccc(Cl)cc4)c(CCCCC(=O)O)nc3c2)CC1 [compound 619, 5-(3-(4-chlorophenyl)-7-(4-(o-tolyl)piperazine-1-carbonyl)quinoxalin-2-yl)pentanoic acid]"
8.70 to 10.00,–,"Cc1cccc(N2CCN(C(=O)c3ccc4nc(-c5ccc(Cl)cc5)c(CCCCC(=O)O)nc4c3)CC2)c1 [compound 620, 5-(3-(4-chlorophenyl)-7-(4-(m-tolyl)piperazine-1-carbonyl)quinoxalin-2-yl)pentanoic acid]"
8.70 to 10.00,–,"Cc1ccc(N2CCN(C(=O)c3ccc4nc(-c5ccc(Cl)cc5)c(CCCCC(=O)O)nc4c3)CC2)cc1C [compound 621, 5-(3-(4-chlorophenyl)-7-(4-(3,4-dimethylphenyl)piperazine-1-carbonyl)quinoxalin-2-yl)pentanoic acid]"
8.70 to 10.00,–,"O=C(O)CCCCc1nc2cc(C(=O)N3CCN(c4ccc(Cl)c(Cl)c4)CC3)ccc2nc1-c1ccc(Cl)cc1 [compound 624, 5-(3-(4-chlorophenyl)-7-(4-(3,4-dichlorophenyl)piperazine-1-carbonyl)quinoxalin-2-yl)pentanoic acid]"
8.70 to 10.00,–,"Cc1cccc(N2CCN(C(=O)c3ccc4nc(-c5ccc(Cl)cc5)c(CCCCC(=O)O)nc4c3)CC2)c1C [compound 627, 5-(3-(4-chlorophenyl)-7-(4-(2,3-dimethylphenyl)piperazine-1-carbonyl)quinoxalin-2-yl)pentanoic acid]"
8.70 to 10.00,–,"Cc1cccc(C)c1N1CCN(C(=O)c2ccc3nc(-c4ccc(Cl)cc4)c(CCCCC(=O)O)nc3c2)CC1 [compound 628, 5-(3-(4-chlorophenyl)-7-(4-(2,6-dimethylphenyl)piperazine-1-carbonyl)quinoxalin-2-yl)pentanoic acid]"
8.70 to 10.00,–,"Cc1ccc(C)c(N2CCN(C(=O)c3ccc4nc(-c5ccc(Cl)cc5)c(CCCCC(=O)O)nc4c3)CC2)c1 [compound 629, 5-(3-(4-chlorophenyl)-7-(4-(2,5-dimethylphenyl)piperazine-l-carbonyl)quinoxalin-2-yl)pentanoic acid]"
8.70 to 10.00,–,"N#Cc1ccccc1N1CCN(C(=O)c2ccc3nc(-c4ccc(Cl)cc4)c(CCCCC(=O)O)nc3c2)CC1 [compound 631, 5-(3-(4-chlorophenyl)-7-(4-(2-cyanophenyl)piperazine-1-carbonyl)quinoxalin-2-yl)pentanoic acid]"
8.70 to 10.00,–,"COc1ccccc1C1CCN(C(=O)c2ccc3nc(-c4ccc(Cl)cc4)c(CCCCC(=O)O)nc3c2)CC1 [compound 632, 5-(3-(4-chlorophenyl)-7-(4-(2-methoxyphenyl)piperidine-1-carbonyl)quinoxalin-2-yl)pentanoic acid]"
8.70 to 10.00,–,"O=C(O)CCCCc1nc2cc(C(=O)N3CCC4(CC3)OCc3ccccc34)ccc2nc1-c1ccc(Cl)cc1 [compound 633, 5-(3-(4-chlorophenyl)-7-(3H-spiro[isobenzofuran-1,4′-piperidin]-1′-ylcarbonyl)quinoxalin-2-yl)pentanoic acid]"
8.70 to 10.00,–,"O=C(O)CCCCc1nc2cc(C(=O)N3CCN(c4cccc(Cl)c4Cl)CC3)ccc2nc1-c1ccc(Cl)cc1 [compound 635, 5-(3-(4-chlorophenyl)-7-(4-(2,3-dichlorophenyl)piperazine-1-carbonyl)quinoxalin-2-yl)pentanoic acid]"
8.70 to 10.00,–,"Cc1ccc(N2CCN(C(=O)c3ccc4nc(-c5ccc(Cl)cc5)c(CCCCC(=O)O)nc4c3)CC2)c(C)c1 [compound 636, 5-(3-(4-chlorophenyl)-7-(4-(2,4-dimethylphenyl)piperazine-1-carbonyl)quinoxa1in-2-yl)pentanoic acid]"
8.70 to 10.00,–,"O=C(O)CCCCc1nc2cc(C(=O)N[C@@H]3CCOc4cc(F)ccc43)ccc2nc1-c1ccccc1 [compound 643, (R)-5-(7-((7-fluoro-chroman-4-yl)carbamoyl)-3-phenylquinoxalin-2-yl)pentanoic acid]"
